Counter-ions that a name gives are not always drawn. Like-named read-outs stand apart in the source and are kept apart here.
Tests used:
[1] = system: bronchospasm induced by histamine; assay: Inhibition of bronchospasm (BSP) induced by histamine in anaesthetized guinea pig (Konzett and Roessler); type: in vivo; conditions: Cavia porcellus, iv, 1 min, histamine 0.5-25 μg/kg i.v., one minute after injection of drug, read-out: BSP, ED50 H
Protocol: (§1) The antibronchospastic activity was determined according to the method of Konzett and Roessler, Arch., Exp. Path. Pharmakol., 195, 71 (1940), entailing the inhibition of bronchospasm induced in anaesthesized guinea pig by histamine and acetylcholine. For this purpose, the bronchospasms were induced by administering intravenously to the animals 0.5-25 μg/kg of hystamine or 2.5-10 μg/kg of acetylcholine. Inhibition (ED50) was determined one minute after injection of the drug under test.
(§2) In the Table which follows, the results obtained utilizing the above tests are reported. The LD50 and the DE50 in the PCA test are expressed in […]. The DE50 for the antibronchospastic activity (BSP) is expressed in μm/kg i.v. (bronchospasm induced by histamine (H) and acetylcholine (A)). In the TXA2 test, (C) is the concentration in μg/ml, whereas (I%) denotes the maximal inhibition percentage. In the PLA test, the DE50 is expressed in μM/kg i.v. (evaluated 5 and 10 minutes after administration).

[2] = Acute toxicity LD50 in the mouse (method of Weil); conditions: in vivo
Source text: (§3) The novel compounds of the present invention are characterized by high antianaphylactic and antibronchospastic activity and by a low toxicity. The LD50 of the novel piperazine derivatives has been determined in the mouse, both ip and per os, following the method described by C. S. Weil, Biometrics, 8, 249 (1952). In order to evaluate the antianaphylactic activity of said novel compounds, the method of Goose and Blair was followed, in which passive cutaneous anaphylaxis (PCA) was induced in the rat with homologous antibodies [Immunology, 16, 749, (1969)].
as §2

[3] = system: passive lung anaphylaxis (PLA); assay: Passive lung anaphylaxis (PLA): antigen induced bronchoconstriction in passively sensitized rat (method of Greenberg et al); type: in vivo; conditions: iv, i.v.
Protocol: Inhibition of passive lung anaphylaxis (PLA) was studied in a model of antigen induced bronchoconstriction in sensitized rat, according to the method described by Greenberg et al, Can. J. Physiol. Pharmacol., 57, 48 (1979). Female albino rate were passively sensitized by intravenous injection of homologous anti-egg albumin serum. Twenty-four hours later the rats were anaesthetized with pentobarbital (35 mg/kg i.p.) and spontaneous respiration was arrested by administration of tubocurarine (0.75 mg/kg i.v.).
Bronchocostriction was induced by egg albumin intravenously administered and measured by the Konzett and Roessler method Arch. Exp. Path. Pharmakol., 195, 71, (1940). The compounds were injected intravenously one minute before antigen challenge. The inhibitory effect (ED50) was evaluated 5 and 10 minutes after i.v. administration of the drugs under test.
as §2

[4] = system: bronchospasm induced by acetylcholine; assay: Inhibition of bronchospasm (BSP) induced by acetylcholine in anaesthetized guinea pig (Konzett and Roessler); type: in vivo; conditions: Cavia porcellus, iv, 1 min, acetylcholine 2.5-10 μg/kg i.v., one minute after injection of drug
Protocol: as §1, §2

[5] = system: passive cutaneous anaphylaxis (PCA); assay: Passive cutaneous anaphylaxis (PCA) in the rat with homologous antibodies (method of Goose and Blair); type: in vivo; conditions: 0.5 h, inhibition of spots areas, 30 minutes after challenge
Source text: as §3
Female albino rate were immunized intramuscularly with egg albumin and intraperitoneally with Haemophylus pertussis vaccine. Twelve days after treatment, the animals were bled and sera thus obtained were injected intradermally into another group of rats. Twenty-four hours later, the animals were challenged with an i.v. solution of ovoalbumin and Evans blue dye, and sacrificed after 30 minutes. The test drugs were given by different routes of administration and at different times before the challenge. Inhibition of spots areas (ED50) was determined.
as §2

TXA2 = TXA2 inhibition in perfused guinea-pig lungs challenged with bradykinin (method of Berti et al); conditions: C = 10 μg/ml, bradykinin 0.25-0.5 μg
Protocol: The TXA2 inhibition was evaluated according to the method of Berti et al Brit. J. Pharmacol., 68, 467 (1980). Lungs from female or male guinea-pigs were perfused through the pulmonary artery with Krebs bicarbonate (5 ml/min, 37° C.). The pulmonary outflow superfused strips of rabbit mesenteric artery and rabbit aorta in cascade, in order to monitor TXA2 activity. These tissues were superfused with a mixture of receptor antagonist and indomethacin to […] their selectivity and sensitivity. Lungs were challenged with a single injection of bradykinin (0.25-0.5 μg) which is known to increase generation of TXA2 from the pulmonary tissue. The novel compounds of the invention were perfused at different concentrations through the lungs 30 and 60 minutes before agonists.
as §2

[6] = 5 min, evaluated 5 minutes after administration, read-out: PLA, ED50 5'
[7] = 10 min, evaluated 10 minutes after administration, read-out: PLA, ED50 10'

Structure (SMILES)	ED50 [1] [µmol/kg]	LD50 ([2]; ip, read-out: LD50 ip) [µmol/kg]	LD50 ([2]; po, per os, read-out: LD50 os) [µmol/kg]	ED50 [3, 6] [µmol/kg]	ED50 [3, 7] [µmol/kg]	ED50 [4] [µmol/kg]	ED50 [5] [µmol/kg]	TXA2 I % (maximal inhibition percentage) (TXA2) [%]
CN(C)c1ccc(NC(=O)CCCN2CCN(C(c3ccccc3)c3ccccc3)CC2)cc1 [Compound 8]	1.1	230	430	0.84	0.84	> 3	10	
CN(C)c1ccc(NC(=O)CCN2CCN(C(c3ccccc3)c3ccccc3)CC2)cc1 [Compound 3, 3-(4-benzhydryl-1-piperazinyl)-N,4-dimethylaminophenylpropionamide]	1.1		> 7000	0.02	0.02	0.8	25	
Nc1cccc(NC(=O)CCN2CCN(C(c3ccccc3)c3ccccc3)CC2)c1 [Compound 4, 3-(4-benzhydryl-1-piperazinyl)-N,3-aminophenylpropionamide]	0.21		5000	0.04	0.08	0.4	8	47
CNC(=O)Nc1ccc(NC(=O)CCN2CCN(C(c3ccccc3)c3ccccc3)CC2)cc1 [Compound 7, 3-(4-benzhydryl-1-piperazinyl)-N,4-methylureidophenylpropionamide]		1750	> 5900				73	
CN(C)c1cccc(NC(=O)CCN2CCN(C(c3ccccc3)c3ccccc3)CC2)c1 [Compound 2, 3-(4-benzhydryl-1-piperazinyl)-N,3-dimethylaminoophenylpropionamide trihydrochloride hemihydrate]		260	340				> 69	
CN(C(=O)CCN1CCN(C(c2ccccc2)c2ccccc2)CC1)c1cccc(N)c1 [Compound 6, 3-(4-benzhydryl-1-piperazinyl)-N,3-aminophenvl-N-methylpropionamide]	0.12	> 2330	> 7000	0.65	0.69	0.4	10	0.8
CNc1cccc(NC(=O)CCN2CCN(C(c3ccccc3)c3ccccc3)CC2)c1 [Compound 1, 3-(4-benzhydryl-1-piperazinyl)-N,3-methylaminophenylpropionamide]	0.25	240	580				13	
Nc1ccc(NC(=O)CCN2CCN(C(c3ccccc3)c3ccccc3)CC2)cc1 [Compound 5, 3-(4-benzhydryl-1-piperazinyl)-N,4-aminophenylpropionamide]	0.23		7200				28	
